Converted amounts (≈) assume the structure as drawn.
Legend:
[1] = Metabolic stability of compound in rat liver microsomes assessed as compound remaining after 10 mins; type: ADME, Microsome; details: read-out: Stability
[2] = Metabolic stability of compound in mouse liver microsomes assessed as compound remaining; type: ADME, Microsome
[3] = Metabolic stability of compound in human liver microsomes assessed as compound remaining; type: ADME, Microsome
[4] = molecular target: TGF-beta receptor type-1 (Homo sapiens, UniProt P36897, T204D); assay: Inhibition of His-tagged TGFBR1 kinase domain T204D mutant (unknown origin) incubated for 1 hr by HTRF analysis
Chain of TGF-beta receptor type-1 (Homo sapiens, UniProt P36897, T204D) (P36897 34-503 T204D limits assumed): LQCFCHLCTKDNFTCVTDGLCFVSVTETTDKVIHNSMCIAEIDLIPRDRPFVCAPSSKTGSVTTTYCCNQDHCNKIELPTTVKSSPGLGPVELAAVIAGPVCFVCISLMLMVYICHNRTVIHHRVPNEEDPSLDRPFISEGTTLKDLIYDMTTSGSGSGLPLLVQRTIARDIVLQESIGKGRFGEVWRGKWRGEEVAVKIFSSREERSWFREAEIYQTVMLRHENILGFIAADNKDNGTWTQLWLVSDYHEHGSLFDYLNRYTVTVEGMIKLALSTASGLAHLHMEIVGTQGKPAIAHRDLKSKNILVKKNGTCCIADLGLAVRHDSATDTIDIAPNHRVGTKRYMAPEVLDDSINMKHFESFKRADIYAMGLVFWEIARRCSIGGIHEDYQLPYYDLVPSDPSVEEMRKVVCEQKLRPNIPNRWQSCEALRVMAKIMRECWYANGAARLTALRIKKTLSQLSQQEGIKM

[5] = molecular target: T1, TGF-beta receptor type-1 (Homo sapiens, UniProt P36897); assay: Inhibition of TGFBR1 in TGFbeta-stimulated human NHLF cells assessed as reduction in SMAD2 nuclear translocation
T1 sequence (P36897 whole entry): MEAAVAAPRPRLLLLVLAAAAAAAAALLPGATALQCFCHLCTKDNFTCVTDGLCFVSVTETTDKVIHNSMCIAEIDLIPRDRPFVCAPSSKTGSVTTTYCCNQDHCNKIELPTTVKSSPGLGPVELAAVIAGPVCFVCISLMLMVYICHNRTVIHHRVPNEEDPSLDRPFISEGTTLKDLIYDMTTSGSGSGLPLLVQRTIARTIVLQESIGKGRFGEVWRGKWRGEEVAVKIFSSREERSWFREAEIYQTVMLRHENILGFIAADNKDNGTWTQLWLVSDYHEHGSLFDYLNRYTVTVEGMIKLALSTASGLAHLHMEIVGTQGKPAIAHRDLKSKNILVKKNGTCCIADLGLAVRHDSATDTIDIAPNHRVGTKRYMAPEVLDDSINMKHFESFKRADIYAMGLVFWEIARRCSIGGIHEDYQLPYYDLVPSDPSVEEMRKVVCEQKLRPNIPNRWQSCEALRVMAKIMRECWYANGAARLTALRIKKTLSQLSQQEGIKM

[6] = AUC (0 to 24 hrs) in mouse at 10 mg/kg, po; type: ADME, organism-based; set-up: dose 10 mg/kg, time < 24 hr, route oral; details: in vivo
[7] = molecular target: TGF-beta receptor type-2 (Homo sapiens, UniProt P37173); assay: Inhibition of wild type His-tagged TGFBR2 kinase domain (unknown origin) incubated for 1 hr by HTRF analysis
Chain of TGF-beta receptor type-2 (P37173 whole entry, the tested form may be a part): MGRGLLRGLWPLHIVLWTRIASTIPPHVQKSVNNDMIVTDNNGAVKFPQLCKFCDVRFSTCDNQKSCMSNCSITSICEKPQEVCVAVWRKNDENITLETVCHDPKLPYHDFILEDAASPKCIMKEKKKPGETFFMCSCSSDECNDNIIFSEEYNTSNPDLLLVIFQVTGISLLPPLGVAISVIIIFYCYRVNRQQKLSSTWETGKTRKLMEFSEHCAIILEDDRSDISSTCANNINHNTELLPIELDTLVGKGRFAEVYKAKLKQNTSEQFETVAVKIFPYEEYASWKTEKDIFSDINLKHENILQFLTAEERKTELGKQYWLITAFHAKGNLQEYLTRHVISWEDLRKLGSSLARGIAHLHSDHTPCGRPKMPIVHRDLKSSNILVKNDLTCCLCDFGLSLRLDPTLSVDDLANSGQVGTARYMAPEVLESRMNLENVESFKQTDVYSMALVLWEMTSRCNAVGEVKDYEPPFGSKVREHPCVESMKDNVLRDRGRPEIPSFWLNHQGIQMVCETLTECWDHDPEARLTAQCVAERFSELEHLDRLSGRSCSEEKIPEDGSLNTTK

[8] = Aqueous solubility of the compound at pH 6.5; type: physicochemical; details: buffer
[9] = Solubility of compound in crystalline form at pH 6.5; type: physicochemical

SMILES	remaining at 10 min [1] [%]	Stability [2] [%]	Stability [3] [%]	IC50 [4] [nM]	IC50 [5] [nM]	AUC(0-t) at 24 h [6] [µM·h]	IC50 [7] [nM]	solubility [8]	solubility [9] [µg/mL]
Cc1cccc(-c2ncn(CC(F)F)c2-c2ccc3nccn3c2)n1	31	54	78	1 to 10	90				
Cc1cccc(-c2ncn(CC(F)F)c2-c2ccc3ncc(C(N)=O)n3c2)n1	74	65	97			2			
N#Cc1cnc2ccc(-c3c(-c4ccc(F)cc4)ncn3CCO)nn12	100	86	93				> 15000		138 (≈ 396 µM)

The remaining lines, values ahead:

remaining at 10 min [1] [%]	Stability [2] [%]	Stability [3] [%]	IC50 [4] [nM]	IC50 [5] [nM]	AUC(0-t) at 24 h [6] [µM·h]	IC50 [7] [nM]	solubility [8]	solubility [9] [µg/mL]	SMILES
100	100	100			28				NC(=O)c1cnc2ccc(-c3c(-c4ccc(F)cc4)ncn3CC(F)F)nn12
96	89	75				> 15000	Insoluble		N#Cc1cnc2ccc(-c3c(-c4ccc(F)cc4)ncn3CC(F)F)nn12

— ChEMBL document CHEMBL4334552, “Discovery of BMS-986260, a Potent, Selective, and Orally Bioavailable TGFβR1 Inhibitor as an Immuno-oncology Agent” (ACS Med Chem Lett, 2020)
